Reference: patent US10138207B2, “Benzomorphan analogs and the use thereof” (priority 2012, dated 2018)

Legend:
κ opioid receptor = κ opioid receptor (Homo sapiens, UniProt P41145); assay: biochemical; format: binding; set-up: expressed in transfected cells; host or cells: HEK 293 (in-house membrane prep); conditions: HEK-293 or CHO cells
μ-opioid receptor [1] = biological target: T1, μ-opioid receptor (Homo sapiens, UniProt P35372); assay: μ-opioid receptor [35S]GTPγS functional assay, U-2 OS cells; format: biochemical; set-up: expressed in transfected cells; host or cells: U-2 OS; conditions: for Emax: relative to DAMGO, read-out: GTPγS μ Emax
T1 sequence (P35372 whole entry, species assumed): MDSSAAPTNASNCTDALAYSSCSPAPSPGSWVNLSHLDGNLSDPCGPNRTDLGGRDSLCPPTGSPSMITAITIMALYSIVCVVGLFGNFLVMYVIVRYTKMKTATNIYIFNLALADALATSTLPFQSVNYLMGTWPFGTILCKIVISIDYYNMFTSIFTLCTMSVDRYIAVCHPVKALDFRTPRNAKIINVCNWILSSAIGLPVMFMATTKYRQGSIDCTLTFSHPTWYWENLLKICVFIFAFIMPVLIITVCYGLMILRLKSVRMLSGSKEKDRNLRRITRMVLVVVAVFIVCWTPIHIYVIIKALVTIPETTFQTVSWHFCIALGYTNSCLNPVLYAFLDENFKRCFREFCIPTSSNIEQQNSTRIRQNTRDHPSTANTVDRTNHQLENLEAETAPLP

μ-opioid receptor [2] = biological target: T1, μ-opioid receptor; assay: μ-opioid receptor [35S]GTPγS functional assay, HEK-293 or CHO cells; conditions: for Emax: read-out: GTPγS μ Emax
[3] = U-2 OS cells, read-out: GTPγS μ EC50

κ opioid receptor, sequence (P41145 whole entry): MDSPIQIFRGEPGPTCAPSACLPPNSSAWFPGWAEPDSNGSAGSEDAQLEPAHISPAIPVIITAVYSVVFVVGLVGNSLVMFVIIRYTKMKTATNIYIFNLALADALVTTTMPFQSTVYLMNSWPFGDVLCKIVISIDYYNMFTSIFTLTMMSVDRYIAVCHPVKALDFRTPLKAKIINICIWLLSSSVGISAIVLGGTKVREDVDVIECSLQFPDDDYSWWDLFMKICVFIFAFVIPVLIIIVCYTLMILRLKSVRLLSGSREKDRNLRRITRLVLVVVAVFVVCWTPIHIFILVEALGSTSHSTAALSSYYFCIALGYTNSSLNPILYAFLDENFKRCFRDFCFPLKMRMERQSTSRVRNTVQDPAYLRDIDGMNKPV

| Compound | Ki (κ opioid receptor) [µM] | EC50 (μ-opioid receptor [2]) [µM] | Emax (μ-opioid receptor [2]) [%] | other results |
| --- | --- | --- | --- | --- |
| CN(C)C(=O)C(CCN1CC[C@]2(C)c3cc(O)ccc3CC1C2N(C)C(=O)Nc1ccc(C#N)cc1)(c1ccccc1)c1ccccc1 (stereo in doubt) [Compound 84, 4-((2R,6R,11S)-11-(3-(4-cyanophenyl)-1-methylureido)-8-hydroxy-6-methyl-1,2,5,6-tetrahydro-2,6-methanobenzo[d]azocin-3(4H)-yl)-N,N-dimethyl-2,2-diphenylbutanamide] | 0.269 ± 0.0277 | – | – | EC50 (μ-opioid receptor [1]; [3]): 0.0839 ± 0.0133 µM; Emax (μ-opioid receptor [1]; U-2 OS cells): 90.7 ± 1.86% |
| COC(=O)c1cccc([C@@]2(O)C3Cc4ccc(OC)cc4[C@@]2(C)CCN3C)c1 [Compound 64, methyl 3-((6R,11S)-11-hydroxy-8-methoxy-3,6-dimethyl-1,2,3,4,5,6-hexahydro-2,6-methanobenzo[d]azocin-11-yl)benzoate] | 12.4 | > 20 | – | – |
| COc1ccc2c(c1)[C@@]1(C)CCN(C)C(C2)[C@@]1(O)c1cccc(-c2nnn[nH]2)c1 [Compound 65, (6R,11R)-11-(3-(1H-tetrazol-5-yl)phenyl)-8-methoxy-3,6-dimethyl-1,2,3,4,5,6-hexahydro-2,6-methanobenzo[d]azocin-11-ol] | – | 5.06 ± 1.15 | 21.7 ± 2.85 | Ki (κ opioid receptor; bound in μM): > 20 µM |
| CN1CC[C@]2(C)c3cc(O)ccc3CC1[C@@H]2COc1cncc(C(=O)O)c1 [Compound 34, 5-(((6S,11R)-8-hydroxy-3,6-dimethyl-1,2,3,4,5,6-hexahydro-2,6-methanobenzo[d]azocin-11-yl)methoxy)nicotinic acid] | 5.99 ± 0.604 | 3.64 ± 0.373 | 16 ± 3.46 | – |
| CN1CC[C@]2(C)c3cc(O)ccc3CC1[C@@H]2CC(=O)N1CCC(C(=O)O)CC1 [Compound 72, 1-(2-((6S,11R)-8-hydroxy-3,6-dimethyl-1,2,3,4,5,6-hexahydro-2,6-methanobenzo[d]azocin-11-yl)acetyl)piperidine-4-carboxylic acid] | 14.8 | 4.89 ± 0.508 | 70.3 ± 8.33 | – |
| COc1ccc2c(c1)C1(C)CCN(C)C(C2)/C1=C\C(=O)O (stereo not shown) [Compound 13, (Z)-2-(8-methoxy-3,6-dimethyl-1,2,3,4,5,6-hexahydro-2,6-methanobenzo[d]azocin-11-ylidene)acetic acid] | – | – | – | Ki (κ opioid receptor; bound in μM): > 20 µM |
| COc1ccc2c(c1)[C@@]1(C)CCN(CC3CC3)[C@H](C2)[C@H]1N(C)C(=O)/C=C/c1ccoc1 [Compound 85, (E)-N-((2R,6R,11S)-3-(cyclopropylmethyl)-8-methoxy-6-methyl-1,2,3,4,5,6-hexahydro-2,6-methanobenzo[d]azocin-11-yl)-3-(furan-3-yl)-N-methylacrylamide] | 0.701 ± 0.0941 | – | – | EC50 (μ-opioid receptor [1]; [3]): 3.24 ± 0.77 µM; Emax (μ-opioid receptor [1]; U-2 OS cells): 19.3 ± 2.33% |
| CN1CC[C@]2(C)c3cc(O)ccc3C[C@@H]1[C@@H]2N(C)C(=O)c1ccc(C(=O)O)cc1 [Compound 59, 4-(((2R,6R,11R)-8-hydroxy-3,6-dimethyl-1,2,3,4,5,6-hexahydro-2,6-methanobenzo[d]azocin-11-yl)(methyl)carbamoyl)benzoic acid] | – | 3.44 ± 0.183 | 76.3 ± 10.2 | Ki (κ opioid receptor; bound in μM): > 20 µM |
| CN1CC[C@]2(C)c3cc(O)ccc3C[C@@H]1[C@H]2COc1cccc(C(=O)O)c1 [Compound 41, 3-(((2R,6S,11S)-8-hydroxy-3,6-dimethyl-1,2,3,4,5,6-hexahydro-2,6-methanobenzo[d]azocin-11-yl)methoxy)benzoic acid] | 1.88 ± 0.28 | 1.22 ± 0.235 | 46 ± 3.79 | – |
| COc1ccc2c(c1)[C@@]1(C)CCN(CC3CC3)[C@H](C2)[C@H]1N(C)CC(=O)O [Compound 73, 2-(((2R,6R,11S)-3-(cyclopropylmethyl)-8-methoxy-6-methyl-1,2,3,4,5,6-hexahydro-2,6-methanobenzo[d]azocin-11-yl)(methyl)amino)acetic acid] | – | 18.1 ± 2.72 | 25 ± 2.52 | Ki (κ opioid receptor; bound in μM): > 20 µM |
| CN(C)C(=O)C(CCN1CC[C@]2(C)c3cc(O)ccc3CC1[C@@H]2O)(c1ccccc1)c1ccccc1 [Compound 21, 4-((6R,11R)-8,11-dihydroxy-6-methyl-1,2,5,6-tetrahydro-2,6-methanobenzo[d]azocin-3(4H)-yl)-N,N-dimethyl-2,2-diphenylbutanamide] | 1.22 ± 0.332 | – | – | – |
| COc1ccc2c(c1)[C@@]1(C)CCN(CC3CC3)[C@H](C2)[C@H]1N(C)C(=O)/C=C\c1ccoc1 [Compound 86, (Z)—N-((2R,6R,11S)-3-(cyclopropylmethyl)-8-methoxy-6-methyl-1,2,3,4,5,6-hexahydro-2,6-methanobenzo[d]azocin-11-yl)-3-(furan-3-yl)-N-methylacrylamide] | 0.979 ± 0.146 | – | – | EC50 (μ-opioid receptor [1]; [3]): 2.15 ± 0.21 µM; Emax (μ-opioid receptor [1]; U-2 OS cells): 14.7 ± 0.88% |
| CN1CC[C@]2(C)c3cc(O)ccc3C[C@@H]1[C@H]2N(C)C(=O)c1cccc(C(=O)O)c1 [Compound 47, 3-(((2R,6R,11S)-8-hydroxy-3,6-dimethyl-1,2,3,4,5,6-hexahydro-2,6-methanobenzo[d]azocin-11-yl)(methyl)carbamoyl)benzoic acid] | 20 | 8.89 ± 0.655 | 58.7 ± 5.24 | – |
| CN[C@H]1C2Cc3ccc(OC)cc3[C@@]1(C)CCN2C [Compound 9, (6R,11R)-8-methoxy-N,3,6-trimethyl-1,2,3,4,5,6-hexahydro-2,6-methanobenzo[d]azocin-11-amine] | 18.9 ± 3.13 | – | – | – |
| CN1CC[C@]2(C)c3cc(O)ccc3CC1C2Nc1ccc(CCS(N)(=O)=O)cc1 (stereo in doubt) [Compound 58, 2-(4-(((2R,6R,11S)-8-hydroxy-3,6-dimethyl-1,2,3,4,5,6-hexahydro-2,6-methanobenzo[d]azocin-11-yl)amino)phenyl)ethanesulfonamide] | 0.336 ± 0.0875 | 0.751 ± 0.0433 | 110 ± 7.55 | – |
| COc1ccc2c(c1)[C@@]1(C)CCN(C)C(C2)[C@@H]1CC(=O)O [Compound 15, 2-((6S,11R)-8-methoxy-3,6-dimethyl-1,2,3,4,5,6-hexahydro-2,6-methanobenzo[d]azocin-11-yl)acetic acid] | – | – | – | Ki (κ opioid receptor; bound in μM): > 20 µM |
| CN1CC[C@]2(C)c3cc(O)ccc3CC1C2N(C)C(=O)CCC(=O)O (stereo in doubt) [Compound 28, 4-(((2R,6R,11S)-8-hydroxy-3,6-dimethyl-1,2,3,4,5,6-hexahydro-2,6-methanobenzo[d]azocin-11-yl)(methyl)amino)-4-oxobutanoic acid] | 18.2 | – | – | EC50 (μ-opioid receptor [1]; [3]): 1.56 ± 0.106 µM; Emax (μ-opioid receptor [1]; U-2 OS cells): 74.7 ± 4.63% |
| CN1CC[C@]2(C)c3cc(O)ccc3CC1[C@@H]2COc1cc(C(N)=O)ccn1 [Compound 53, 2-(((6S,11R)-8-hydroxy-3,6-dimethyl-1,2,3,4,5,6-hexahydro-2,6-methanobenzo[d]azocin-11-yl)methoxy)isonicotinamide] | 0.701 ± 0.058 | 1.11 ± 0.21 | 82.7 ± 1.2 | – |
| COc1ccc2c(c1)[C@@]1(C)CCN(C)C(C2)C1NC(=O)/C=C/c1ccoc1 (stereo in doubt) [Compound 23, (E)-3-(furan-3-yl)-N-((2R,6R,11S)-8-methoxy-3,6-dimethyl-1,2,3,4,5,6-hexahydro-2,6-methanobenzo[d]azocin-11-yl)acrylamide] | 13.2 | – | – | – |
| COc1ccc2c(c1)[C@@]1(C)CCN(C)C(C2)[C@H]1N(C)C(=O)/C=C/c1ccoc1 [Compound 20, (E)-3-(furan-3-yl)-N-((6R,11S)-8-methoxy-3,6-dimethyl-1,2,3,4,5,6-hexahydro-2,6-methanobenzo[d]azocin-11-yl)-N-methylacrylamide] | 1.95 ± 0.538 | – | – | – |
| COc1ccc2c(c1)[C@@]1(C)CCN(CC3CC3)C(C2)[C@H]1N(C)C(=O)Nc1ccc(C(N)=O)cc1 [Compound 82] | 10.2 | – | – | EC50 (μ-opioid receptor [1]; U-2 OS cells, bound in μM, read-out: GTPγS μ EC50): > 20 µM; Emax (μ-opioid receptor [1]; U-2 OS cells): 31.7 ± 5.36% |
| COc1ccc2c(c1)C1(C)CCN(CCC(C(=O)N(C)C)(c3ccccc3)c3ccccc3)C(C2)C1=NO (stereo not shown) [Compound 19, 4-(11-(hydroxyimino)-8-methoxy-6-methyl-1,2,5,6-tetrahydro-2,6-methanobenzo[d]azocin-3(4H)-yl)-N,N-dimethyl-2,2-diphenylbutanamide] | 8.52 ± 0.605 | – | – | – |
| CN1CC[C@]2(C)c3cc(O)ccc3C[C@@H]1[C@H]2N(C)C(=O)Nc1ccc(C#N)cc1 [Compound 79, 3-(4-cyanophenyl)-1-((2R,6R,11S)-8-hydroxy-3,6-dimethyl-1,2,3,4,5,6-hexahydro-2,6-methanobenzo[d]azocin-11-yl)-1-methylurea] | 3.14 ± 0.805 | – | – | EC50 (μ-opioid receptor [1]; [3]): 2.2 ± 0.668 µM; Emax (μ-opioid receptor [1]; U-2 OS cells): 49 ± 3.46% |
| CON=C1C2Cc3ccc(OC)cc3C1(C)CCN2CC1CC1 (stereo not shown) [Compound 10, 3-(cyclopropylmethyl)-8-methoxy-6-methyl-1,2,3,4,5,6-hexahydro-2,6-methanobenzo[d]azocin-11-one O-methyl Oxime] | 2.14 ± 0.151 | – | – | – |
| CCOC(=O)C[C@H]1C2Cc3ccc(OC)cc3[C@@]1(C)CCN2C [Compound 14, ethyl 2-((6S,11R)-8-methoxy-3,6-dimethyl-1,2,3,4,5,6-hexahydro-2,6-methanobenzo[d]azocin-11-yl)acetate] | 14.3 | – | – | – |
| COc1ccc2c(c1)[C@@]1(C)CCN(C)[C@@H](C2)C1=NNC(=O)c1ccc(F)cc1 [Compound 26, 4-fluoro-N′-((2S,6R)-8-methoxy-3,6-dimethyl-1,2,3,4,5,6-hexahydro-2,6-methanobenzo[d]azocin-11-ylidene)benzohydrazide] | – | – | – | Ki (κ opioid receptor; bound in μM): > 20 µM; EC50 (μ-opioid receptor [1]; GTPγS μ EC50, U-2 OS cells): 1.19 ± 0.0939 µM; Emax (μ-opioid receptor [1]; U-2 OS cells): 91 ± 7.09% |
| CN1CCC2(C)C(=NO)C1Cc1ccc(O)cc12 (stereo not shown) [Compound 18, 8-hydroxy-3,6-dimethyl-1,2,3,4,5,6-hexahydro-2,6-methanobenzo[d]azocin-11-one oxime] | 5.58 ± 1.01 | – | – | – |
| COc1ccc2c(c1)[C@@]1(C)CCN(C)C(C2)[C@@H]1CO [Compound 11, ((6S,11R)-8-methoxy-3,6-dimethyl-1,2,3,4,5,6-hexahydro-2,6-methanobenzo[d]azocin-11-yl)methanol] | – | – | – | Ki (κ opioid receptor; bound in μM): > 20 µM |
